Experimental data: PubChem BioAssay (NCI)
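These data come from cells grown in 96-well plates and exposed to compound for 48 hours at five concentrations. Abbreviation: GI50, concentration required for 50% inhibition of growth. TGI denotes the concentration required for complete inhibition of growth.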

Experiments:
Test in all cases: NCI-60 cell line screen, 48 h
[1] = test system: OVCAR-4 ovarian
[2] = test system: U251 CNS
[3] = test system: NCI-H522 lung
[4] = test system: NCI-H23 lung
[5] = test system: CCRF-CEM leukemia
[6] = test system: K-562 leukemia
[7] = test system: IGROV1 ovarian
[8] = test system: COLO 205 colon
[9] = test system: HOP-92 NSCLC
[10] = test system: SK-MEL-5 melanoma
[11] = test system: 786-0 renal
[12] = test system: HCT-15 colon
[13] = test system: HCT-116 colon
[14] = test system: SF-539 CNS
[15] = test system: NCI-H226 lung
[16] = test system: BT-549 breast
[17] = test system: SW-620 colon
[18] = test system: MOLT-4 leukemia
[19] = test system: MDA-MB-231 breast
[20] = test system: MCF7 breast
[21] = test system: RXF 393 renal
[22] = test system: SF-268 CNS
[23] = test system: OVCAR-3 ovarian
[24] = test system: RPMI-8226 leukemia
[25] = test system: SNB-19 CNS
[26] = test system: T-47D breast
[27] = test system: UACC-62 melanoma
[28] = test system: KM12 colon
[29] = test system: A498 renal
[30] = test system: OVCAR-8 ovarian
[31] = test system: DU-145 prostate
[32] = test system: HT29 colon
[33] = test system: HS 578T breast
[34] = test system: SN12C renal
[35] = test system: SK-MEL-28 melanoma
[36] = test system: UACC-257 melanoma
[37] = test system: UO-31 renal
[38] = test system: SNB-75 CNS
[39] = test system: MDA-MB-435
[40] = test system: TK-10 renal
[41] = test system: HL-60(TB) leukemia
[42] = test system: OVCAR-5 ovarian
[43] = test system: SK-OV-3 ovarian
[44] = test system: NCI-H460 lung
[45] = test system: PC-3 prostate
[46] = test system: EKVX NSCLC
[47] = test system: LOX IMVI melanoma
[48] = test system: SK-MEL-2 melanoma
[49] = test system: HOP-62 NSCLC
[50] = test system: SF-295 CNS
[51] = test system: A549 NSCLC
[52] = test system: NCI/ADR-RES ovarian
[53] = test system: HCC-2998 colon
[54] = test system: MDA-MB-468 breast
[55] = test system: CAKI-1 renal
[56] = test system: MALME-3M melanoma
[57] = test system: ACHN renal

## N/C(=N\c1nc2ccccc2s1)NC(=O)Nc1ccccc1[N+](=O)[O-]
[1]
  GI50: 8070 nM
  TGI: 42500 nM
[2]
  GI50: 55.5 nM
  TGI: 14000 nM
[3]
  GI50: 33 nM
  TGI: 363 nM
[4]
  GI50: 266 nM
  TGI: 16800 nM
[5]
  GI50: 55.5 nM
  TGI: 16600 nM
[6]
  GI50: 42.4 nM
  TGI: > 100000 nM
[7]
  GI50: 108 nM
  TGI: 12700 nM
[8]
  GI50: 169 nM
  TGI: 781 nM
[9]
  GI50: 4580 nM
  TGI: 26300 nM
[10]
  GI50: 52.7 nM
  TGI: 1590 nM
[11]
  GI50: 186 nM
  TGI: 13600 nM
[12]
  GI50: 48.2 nM
  TGI: 11300 nM
[13]
  GI50: 43.1 nM
  TGI: 6060 nM
[14]
  GI50: 39.9 nM
  TGI: 273 nM
[15]
  GI50: 571 nM
  TGI: 9260 nM
[16]
  GI50: 202 nM
  TGI: 6560 nM
[17]
  GI50: 52.9 nM
  TGI: 19500 nM
[18]
  GI50: 195 nM
  TGI: > 51300 nM
[19]
  GI50: 139 nM
  TGI: 4660 nM
[20]
  GI50: 168 nM
  TGI: 12600 nM
[21]
  GI50: 47.2 nM
  TGI: 499 nM
[22]
  GI50: 2360 nM
  TGI: 36800 nM
[23]
  GI50: 51.4 nM
  TGI: 9130 nM
[24]
  GI50: 341 nM
  TGI: > 59900 nM
[25]
  GI50: 151 nM
  TGI: 19600 nM
[26]
  GI50: 538 nM
  TGI: 25700 nM
[27]
  GI50: 45.9 nM
  TGI: 14000 nM
[28]
  GI50: 60.5 nM
  TGI: 14000 nM
[29]
  GI50: 17200 nM
  TGI: 32800 nM
[30]
  GI50: 201 nM
  TGI: 9440 nM
[31]
  GI50: 327 nM
  TGI: 13400 nM
[32]
  GI50: 62.1 nM
  TGI: 645 nM
[33]
  GI50: 61.5 nM
  TGI: 18700 nM
[34]
  GI50: 258 nM
  TGI: 12700 nM
[35]
  GI50: 1200 nM
  TGI: 20600 nM
[36]
  GI50: 12200 nM
  TGI: 25000 nM
[37]
  GI50: 244 nM
  TGI: 17100 nM
[38]
  GI50: 36.3 nM
  TGI: 12500 nM
[39]
  GI50: 24.2 nM
  TGI: 72.8 nM
[40]
  GI50: 12900 nM
  TGI: 28400 nM
[41]
  GI50: 34.1 nM
  TGI: > 100000 nM
[42]
  GI50: 376 nM
  TGI: 13100 nM
[43]
  GI50: 236 nM
  TGI: 31100 nM
[44]
  GI50: 56.8 nM
  TGI: 6760 nM
[45]
  GI50: 143 nM
  TGI: 28800 nM
[46]
  GI50: 248 nM
  TGI: 17900 nM
[47]
  GI50: 69.8 nM
  TGI: 11600 nM
[48]
  GI50: 32.9 nM
  TGI: 3020 nM
[49]
  GI50: 104 nM
  TGI: 19600 nM
[50]
  GI50: 55 nM
  TGI: 10800 nM
[51]
  GI50: 346 nM
  TGI: 16900 nM
[52]
  GI50: 45 nM
  TGI: 345 nM
[53]
  GI50: 203 nM
  TGI: 6100 nM
[54]
  GI50: 228 nM
  TGI: 573 nM
[55]
  GI50: 63.5 nM
  TGI: 16100 nM
[56]
  GI50: 103 nM
  TGI: 16700 nM
[57]
  GI50: 111 nM
  TGI: 16300 nM
